| melting point [°C] | SMILES |
| --- | --- |
| 112 to 114 | O=S(=O)(c1ccccc1)c1ccc2c(c1)O[C@H](CO)CO2 |
| 129 to 133 | COC(=O)C(Cc1ccccc1)Oc1ccc2cc(CNC(=O)c3oc4ccccc4c3C)ccc2c1Br (stereo unspecified) |
| 160 to 165 | COc1c([N+](=O)[O-])ccc2c1C(=O)CC1(CCN(C(C)=O)CC1)O2 |
| 85 to 86 | CC(C)(C)C(=C=CCl)c1ccccc1-c1ccccc1 |
| 138 to 140 | CCN(CC)C(=O)c1ccc(Nc2nc(OCC3CCCCC3)c3nc[nH]c3n2)cc1 |
| 158 to 160 | CCOCCOC(=O)C(=O)Nc1nc(-c2ccc(C(C)(C)C)cc2)cs1 |
| 180 to 182 | O=C1Nc2ccccc2OC1c1ccc(Cl)cc1 (stereo unspecified) |
| 160 to 163 | CCn1ncc2c(NCC3CCCCC3)c3cc(OCC4CO4)ccc3nc21 (stereo unspecified) |
| 128 to 130 | CNC(=O)c1cccc(C(=O)OC)c1 |
| 110 to 112 | CC12CCC3C(CCC4CC=CCC43C)C1CCC2C#N (stereo unspecified) |
| 78 to 79 | c1ccc(CN2CCc3[nH]c4c(-c5ccccc5)cccc4c3CC2)cc1 |
| 146 to 148 | O=C(NCCc1ccc2c(c1)OCO2)C12CC3CC(CC(C3)C1)C2 |
| 264 to 266 | Cn1nnc(-c2ccc(C=Cc3ccc(-c4nc5ccccc5o4)cc3)cc2)c1C#N |
| 127 to 129 | Cn1ccnc1CCNC(=O)c1ccccc1NS(=O)(=O)c1cccc(C(F)(F)F)c1 |
| 183 to 184 | Cc1c2c(c3ccccc3c1NC(=O)CC(C)(C)C)OCC2c1ccc(C(C)C)cc1 (stereo unspecified) |
| 60 | COc1cccc(N(C(=O)c2ccc(Br)s2)C2CC2)c1 |
| 123 to 127 | CN1CCC(c2c[nH]c3ccc(NC(=O)c4ccsc4)nc23)CC1 |
| 159 | CCOC(=O)C(=O)NNC(=O)c1cc(C)cc(C)c1 |
| 188 to 190 | CC1=C2c3c(cnc4cc(Cl)ccc34)NC2C(C)CN1 (stereo unspecified) |
| 279 | O=C(Nc1cccc2c1C(=O)c1c-2n[nH]c1-c1ccc(N2CCNCC2)cc1)NN1CCN(CCO)CC1 |
| 123 to 127 | CCOC(=O)c1c(SCOC)nc2cc(F)c(F)cc2c1O |
| 162 to 165 | COc1nc(C(=O)NS(=O)(=O)c2c(Cl)cccc2Cl)cs1 |
| 117 to 119 | CCN(CC)C(=O)/C=C(\C)c1ccc(OC(C)c2ccccc2)c(OC(C)(C)C(=O)O)c1 (stereo unspecified) |
| 125 to 127 | CC(=O)c1ccc2c(c1)C(=C1CCN(C)CC1)c1ccccc1S2 |

| melting point [°C] | SMILES |
| --- | --- |
| 99.1 to 101 | C[C@H]1CCCC(C)(C)[C@@H]1[C@H](O)c1ccc2c(c1)CCN(C(N)=O)C2 |
| 214 to 215 | Cn1ncc2c1-c1c(Oc3ccc(OCc4ccc5ccccc5n4)cc3)sc(C(=O)O)c1CC2 |
| 55 | CC(C)CCCC(C)CCOc1cc(CCl)c(OCCC(C)CCCC(C)C)cc1CCl (stereo unspecified) |
| 138 to 140 | NC(=O)N(O)CCOc1ccc2c(c1)CCN(CCCc1ccc(F)cc1)C2=O |
| 164 to 165 | CCCCCCCc1ccc(CC2C=CC(Oc3ccc(C(=O)O)o3)=C3N=C4CCCCC4=C32)cc1 (stereo unspecified) |
| 227 to 229 | Cc1nc(-c2ccccc2)nc(-c2cccc([N+](=O)[O-])c2)c1CNC(N)=S |
| 64 to 66 | CCC(Cc1ccc(OC)c(OCCc2ccc(C(F)(F)F)cc2)c1)C(=O)O (stereo unspecified) |
| 209 to 211 | CCOC(=O)c1cn(N2CCOCC2)c2ccc(CN3CCOCC3)cc2c1=O |
| 128 to 130 | Cc1ncsc1C(C)(O)c1ccccc1 (stereo unspecified) |
| 121 | CCO/C(=C\c1ccc(OCCc2ccc(OCC)cc2)c(OC)c1)C(=O)O |
| 124 | Cc1cc(C)n(C(=O)CNS(=O)(=O)c2ccc(CC(C)C)cc2)n1 |
| 72 to 75 | CCCCN1CCc2c(C)nc3ncnn3c21 |
| 150 to 152 | Cc1ccc(Cc2c(C(F)(F)F)[nH][nH]c2=O)cc1 |
| 161 to 163 | CCCCCCC(=O)N1C(C)Cc2ccccc2C1CNC(=O)c1cc(OC)c(OC)c(OC)c1 (stereo unspecified) |
| 201 | CC1(C)OC(=C(C#N)C#N)C(C#N)=C1c1ccc(C#C[Si](C)(C)C)cc1 |
| 155 to 156 | Cc1ncc2c(n1)-c1ccc(Cl)cc1C(c1ccccc1Cl)N(C)C2 (stereo unspecified) |
| 260 | COc1ccc2c(c1)CCN(CCc1ccc(NC(=O)c3cccc4c(=O)c5cccc(OC)c5[nH]c34)cc1)C2 |
| 124 to 126 | CC(C)(S)C1COC(=O)N1 (stereo unspecified) |
| 287 to 290 | COC(=O)c1ccc(C(=O)NNC(=O)c2ccc(C(=O)OC)cc2)cc1 |
| 207 to 208 | CCc1c(C(=O)O)nn(-c2ccc(Cl)cc2Cl)c1-c1ccc(Cl)s1 |
| 62 to 63 | Cc1ccc(Cn2cc(CC(=O)O)c3cc(-c4ccc(OC(F)(F)F)cc4)ccc32)cc1 |
| 150 to 152 | O=C1CN(Cc2ccccc2)C(=S)N1 |
| 67 to 70 | O=C(c1ccc(OC(F)(F)F)cc1)c1sccc1O |
| 106 to 107 | CC(C)(C)OC(=O)NCCOc1noc2ccc(Cl)cc12 |

| melting point [°C] | SMILES |
| --- | --- |
| 239 to 240 | Cc1cc(-c2csc(-c3ccc(C(=O)O)cc3)n2)c(C)s1 |
| 40 to 42 | C=C(C)C(=O)OCCOC(=O)C(=O)OCc1ccc(OCc2ccccc2)cc1 |
| 170 to 172 | CCCCCCOc1c(C=Cc2ccc(Br)cc2)ccc2c(OCCCCCC)c(C=Cc3ccc(Br)cc3)ccc12 |
| 235 to 236 | O=C(O)CCC(=O)NCc1ccc2c(c1)-c1[nH]nc(-c3ccsc3)c1C2 |
| 106 to 108 | O=c1oc(-c2cccc(S(=O)C(F)(F)F)c2)nc2ccccc12 (stereo unspecified) |
| 190 to 192 | O=C1CCC(N2Cc3cc(CNC(=O)Nc4ccc(-c5ncc[nH]5)cc4)ccc3C2=O)C(=O)N1 (stereo unspecified) |
| 145 to 147 | CCOC(=O)C(C)=C(C)NC(=O)Nc1cc(C(=O)OC(C)C)c(Cl)cc1F |
| 212 to 214 | O=c1[nH]c2c(cc1-c1nnc(C3CC3)o1)CN(Cc1ccccc1)CC2 |
| 245 to 246 | Cc1nc(N)nc(N)c1N=Nc1ccc(Br)cc1 |
| 119 to 121 | COc1ccc(C)cc1NC(=O)Nc1ccc2c(c1)CCN(C(=O)Nc1ccc(OCC(O)CO)cc1Cl)C2 (stereo unspecified) |
| 205 | CC(C)(C)OC(=O)NCC(=O)NCc1ccc(Nc2n[nH]c3ncnc(Nc4cccc(Cl)c4)c23)cc1 |
| 165 | COCc1c(C(=O)c2ccccc2)ncc2[nH]c3ccc(OCc4ccccc4)cc3c12 |
| 162 to 163 | Cc1oc(-c2ccc3ccccc3c2)nc1/C=C/c1ccc(C=O)cc1 |
| 190 to 192 | O=C(O)CNC(=O)CC1=C(n2nc(-c3c(-c4ccccc4)nn4ccccc34)ccc2=O)CCCC1 |
| 297 | COc1ccc(-c2[nH]nc3c2C(=O)c2c(NC(=O)Cc4ccc5c(c4)OCCO5)cccc2-3)cc1 |
| 139 to 140 | O=C(O)[C@@H](CCCN1C(=O)c2ccccc2C1=O)NS(=O)(=O)c1ccc(Oc2ccccc2)cc1 |
| 116 to 117 | CCCCN(CCCC)c1nnc(N)s1 |
| 117 to 118 | O=C(O)CSC(CCc1ccccc1)c1ccc(OCc2ccc3ccccc3n2)cc1 (stereo unspecified) |
| 129 to 131 | Cc1ccc(S(=O)(=O)OCC2Cc3cccc([N+](=O)[O-])c3O2)cc1 (stereo unspecified) |
| 189 | NCc1ccc(-c2csc(N)n2)s1 |
| 188 to 190 | CCS(=O)(=O)N(C)C1c2cc(F)c(Cl)cc2OC(C)(C)C1O (stereo unspecified) |
| 48 to 49 | CCOC(=O)c1cnn(-c2ccc(F)cc2)c1C |
| 155 to 157 | O=C(O)Cc1coc2cc(OCc3cccc(OCc4ccc(C(F)(F)F)cc4)c3)ccc12 |
| 215 to 216 | Fc1cccc(F)c1-c1ncc(-c2ccc(-c3ccc(OC(F)(F)F)cc3)cc2)cn1 |

| melting point [°C] | SMILES |
| --- | --- |
| 219 to 220 | O=C(NC1C(O)=COC2=C1SC([N+](=O)[O-])C2)c1ccc(C(F)(F)F)cc1 (stereo unspecified) |
| 209 to 210 | Cc1[nH]c(-c2ccc(F)cc2)c(N)c1C(=O)c1ccccc1 |
| 172 to 174 | CC(C)c1nc(COC(=O)N[C@H](C(=O)N[C@@H](Cc2ccccc2)[C@@H](O)C[C@H](Cc2ccccc2)NC(=O)OCc2cncs2)C(C)C)cs1 |
| 192 to 193 | Cn1cc(-c2cc3cccnc3[nH]2)c2cc(OCCCO)ccc21 |
| 183 to 185 | COc1nccc2c1C(c1ccccc1C(F)(F)F)c1c(ccnc1OC(C)C)N2 (stereo unspecified) |
| 248 to 249 | COc1c(CN2C(=O)c3ccccc3C2=O)n(C)c(=O)c2ccc(Cl)cc12 |
| 120 to 122 | CN1C[C@@H](C(=O)OCc2ccccc2)N(C(=O)OCc2ccccc2)C1=O |
| 215 | COc1cc(C(=O)O)ccc1Cc1c(Cl)n(C)c2ccc(CCNC(=O)N(C)C)cc12 |
| 91 | CCCCCCCC(=O)N(C)Cc1cccc(-c2ccc(C=CC(=O)O)c(F)c2)c1 |
| 121 to 122 | Cc1cc2c(c(C)c1N)C(c1ccc(C(C)C)cc1)CS2 (stereo unspecified) |
| 160 to 165 | c1cnc2nc(-c3nccs3)ccc2c1 |
| 204 to 206 | O=C(O)c1cccc2nc(OCC(F)(F)F)n(Cc3ccc(-c4ccccc4-c4nnn[nH]4)cc3)c12 |
| 97 to 101 | CCCC(O)c1cc(C(=O)OC)c(NC(C)=O)cc1C(F)(F)F (stereo unspecified) |
| 162 | CC(C)N(C1CCCCC1)S(=O)(=O)N[C@@H](Cc1ccc(Nc2nccc3cnccc23)cc1)C(=O)O |
| 261 | Cc1cccc(C2C(C#N)=C(C(C)C)Nc3n[nH]cc32)c1[N+](=O)[O-] (stereo unspecified) |
| 160 to 161 | O=C(N[C@@H](Cc1c[nH]c2ccccc12)C(=O)O)c1cccc(Cl)c1 |
| 143 to 144 | O=c1[nH]c(N2CCCC(CO)C2)cc2ccccc12 (stereo unspecified) |
| 205 to 207 | O=C(Nc1c(C(O)(C(F)(F)F)C(F)(F)F)ccc2ccccc12)c1cc(Cl)cc(Cl)c1 |
| 187 to 189 | O=C(O)c1ncc2[nH]c3ccccc3c2n1 |
| 178 to 180 | COc1ccc(Br)cc1CC1CCCn2c1nc(-c1ccncn1)cc2=O (racemic) |
| 126 to 128 | CN(C)C(=O)n1nc(C(C)(C)C)cc1S(C)(=O)=O |

| SMILES | melting point [°C] |
| --- | --- |
| CC(=O)Nc1ccc(C#Cc2ccc(C3CC4CCCC(C3)N4C)nn2)cc1 (stereo unspecified) | 270 to 271 |
| CCCN1CC[C@@H]2CC(=O)c3cc(F)ccc3[C@@H]2C1 (relative stereo) | > 220 |
| CN1C[C@H](CN2CCC(O)(c3ccc(Cl)cc3)CC2)C=C2c3cccc4[nH]c(Cl)c(c34)C[C@H]21 | > 192 |

From a melting point compilation (Tetko et al.; mined from patent text by program, amines drawn as free bases though some values may be those of a salt)
